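Test compounds were applied to cells in 96-well plates for 48 hours at 5 doses. Abbreviation: GI50, concentration required for 50% inhibition of growth. TGI: total growth inhibition.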
How the values were obtained:
Test in all cases: DTP human tumour cell line panel, 48 h
[1] = test system: 786-0 renal
[2] = test system: A498 renal
[3] = test system: A549 NSCLC
[4] = test system: ACHN renal
[5] = test system: BT-549 breast
[6] = test system: CAKI-1 renal
[7] = test system: CCRF-CEM leukemia
[8] = test system: COLO 205 colon
[9] = test system: DU-145 prostate
[10] = test system: EKVX NSCLC
[11] = test system: HCC-2998 colon
[12] = test system: HCT-116 colon
[13] = test system: HCT-15 colon
[14] = test system: HL-60(TB) leukemia
[15] = test system: HOP-62 NSCLC
[16] = test system: HOP-92 NSCLC
[17] = test system: HS 578T breast
[18] = test system: IGROV1 ovarian
[19] = test system: K-562 leukemia
[20] = test system: LOX IMVI melanoma
[21] = test system: M14 melanoma
[22] = test system: MALME-3M melanoma
[23] = test system: MCF7 breast
[24] = test system: MDA-MB-231 breast
[25] = test system: MDA-MB-435
[26] = test system: MOLT-4 leukemia
[27] = test system: NCI-H226 lung

CCN(CC)c1ccc(C(O)C2=CC(=O)c3ccccc3C2=O)cc1 (stereo unspecified)
GI50 [1]: 1.36 µM
TGI [1]: 2.65 µM
GI50 [2]: 2.36 µM
TGI [2]: 8.35 µM
GI50 [3]: 4.4 µM
TGI [3]: 30.9 µM
GI50 [4]: 1.75 µM
TGI [4]: 4.6 µM
GI50 [5]: 3.07 µM
TGI [5]: 8.22 µM
GI50 [6]: 2.31 µM
TGI [6]: 7.4 µM
GI50 [7]: 0.31 µM
GI50 [8]: 1.58 µM
TGI [8]: 3.59 µM
GI50 [9]: 1.85 µM
TGI [9]: 4.27 µM
GI50 [10]: 4.01 µM
TGI [10]: 15.7 µM
GI50 [11]: 1.92 µM
TGI [11]: 3.43 µM
GI50 [12]: 1.76 µM
TGI [12]: 3.14 µM
GI50 [13]: 3.03 µM
TGI [13]: > 32.1 µM
GI50 [14]: 7.1 µM
TGI [14]: > 100 µM
GI50 [15]: 2.03 µM
TGI [15]: 4.33 µM
GI50 [16]: 0.21 µM
TGI [16]: 0.942 µM
GI50 [17]: 1.32 µM
TGI [17]: 5.53 µM
GI50 [18]: 1.53 µM
TGI [18]: 3.07 µM
GI50 [19]: 0.416 µM
GI50 [20]: 1.14 µM
TGI [20]: 3.66 µM
GI50 [21]: 2.1 µM
TGI [21]: 4.57 µM
GI50 [22]: 1.59 µM
TGI [22]: 3.13 µM
GI50 [23]: 1.58 µM
TGI [23]: 6.31 µM
GI50 [24]: 1.53 µM
TGI [24]: 4.61 µM
GI50 [25]: 1.58 µM
TGI [25]: 2.99 µM
GI50 [26]: 0.44 µM
TGI [26]: > 100 µM
GI50 [27]: 1.93 µM

Source: PubChem BioAssay (NCI)
